From patent publication US5418218A, “Histidyl-proline diketopiperazine (cyclo his-pro) a cns-active pharmacologic agent” (The University of Maryland at Baltimore, priority 1992, dated 1995)

Tests used:
[1] = Weight loss activity of cyclic dipeptides; conditions: in vivo
Excerpt: As to the active ingredient, while the effect as to weight loss appears to be stereospecific, it is contemplated that alterations can be made to the compound to enhance the activities thereof contemplated to fall within the scope of the instant invention.

[2] = Intraperitoneal cyclo (His-Pro), inhibition of appetite in animals receiving liquid diets; format: in vivo; conditions: intraperitoneally, 20 mg/kg/day for 24 days
[3] = Intracerebroventricular administration / lateral ventricle infusion, appetite and weight gain; format: in vivo, rodents; conditions: administered IVT acutely
[4] = Passage of the blood-brain barrier; format: in vivo; conditions: non-CNS administration
Procedure: Thus, it was determined in the development of the instant invention that cyclo (His-Pro), unlike the vast majority of biologics that are susceptible to degradation in the gastrointestinal tract, can be administered by those routes normally employed for drug administration, such as intramuscularly and intravenously, but also that cyclo (His-Pro) can be administered orally. […] Although not an absolute barrier of the passage of compounds into the brain, many compounds cross very slowly if at all to any effective extent.

[5] = Stability in vivo and in drinking water
Excerpt: While it is known that the pyroglutamic acid residue often confers stability on a peptide carrying the same at a terminus, such as TRH, the precursor of cyclo (His-Pro), the pyroglutamic acid residue is not present in cyclo His-Pro.
The carrier(s) must be "acceptable" in the sense of being compatible with other ingredients of the formulation and not deleterious to the recipient thereof. […] Formulations suitable for administration conveniently comprise sterile aqueous solutions of the active chemical, which may be conveniently prepared by mixing the active chemical with water, and after rendering said solution sterile it may be presented in sealed containers.

[6] = cited from earlier work
[7] = test system: pancreatic or intestinal enzymes; experiment: Resistance to proteolytic digestion
[8] = Oral administration to rats, appearance in plasma; conditions: administered orally to rats
[9] = Oral cyclo (His-Pro) in drinking water, weight gain in rodents
[10] = oral in drinking water, versus control animals, P<0.02

SMILES	weight loss activity [1]	inhibition of appetite [2]	duration of action [3]	blood-brain barrier passage [4]	effectiveness after addition to water ([5]; added to water, such as drinking water from the tap)	enzymatic degradation in vivo ([5]; in vivo)	half-life ([5]; in vivo)	duration of appetite reduction ([6]; after intracerebroventricular administration to rodents)	duration of inhibition of weight gain ([6]; infused into the lateral ventricle)	resistance to proteolytic digestion [7]	form appearing in plasma [8]	cause of weight loss (satiety versus illness) ([9]; experimental studies)	mean body weight reached by experimental animals ([9]; oral in drinking water, 1 or 2 mg/kg/day for 14 to 18 days, controls gained from a mean of 248 to 396 gms)	inhibition of weight gain [9, 10]	inhibition of weight gain (minus %) [9, 10]
O=C(O)CCC1NC(=O)C(Cc2ccccc2)NC1=O (stereo not shown) [cyclo (Glu-Phe)]	did not provide weight loss activity	–	–	–	–	–	–	–	–	–	–	–	–	–	–
O=C1N[C@@H](Cc2cnc[nH]2)C(=O)N2CCC[C@@H]12 [cyclo (His-Pro), L-histidyl-L-proline diketopiperazine]	–	can induce inhibition of appetite	about 12 hours	crosses the blood-brain barrier to achieve effective concentrations in a short period of time	retain effectiveness	resistant to enzymatic degradation in vivo	long half-life	≤ 12 h	2 weeks	uniquely resistant to proteolytic digestion	completely unaltered biochemically	due to induction of satiety, not of nausea, vomiting or illness	384 gms	12 grams	8.1%
O=C1[C@@H]2CCCN2C(=O)[C@@H]2CCCN12 [cyclo (Pro-Pro)]	did not provide weight loss activity	–	–	–	–	–	–	–	–	–	–	–	–	–	–
